Target: T1, FPRL-1 (Homo sapiens, UniProt P25090)
T1 construct: expressed in transfected cells
T1 sequence (P25090 1-351): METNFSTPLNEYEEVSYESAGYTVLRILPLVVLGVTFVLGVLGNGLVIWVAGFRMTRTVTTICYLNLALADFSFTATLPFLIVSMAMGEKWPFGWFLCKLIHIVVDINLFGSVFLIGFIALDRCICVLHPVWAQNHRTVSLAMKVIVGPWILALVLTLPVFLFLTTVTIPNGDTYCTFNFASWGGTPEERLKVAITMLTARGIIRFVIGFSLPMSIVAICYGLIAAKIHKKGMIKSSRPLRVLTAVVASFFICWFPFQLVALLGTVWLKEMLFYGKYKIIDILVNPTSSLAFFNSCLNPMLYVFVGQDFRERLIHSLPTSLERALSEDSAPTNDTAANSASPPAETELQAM
Experiment: compound-induced calcium activity on FLIPR Tetra in CHO-Gα16 cells stably expressing FPRL1
Assay type: cell-based
Details: for FPRL-1 Ga16-CHO (Rel. eff.): relative efficacy; for EC50: tested 0.61 to 10,000 nM, read-out: FPRL-1 Ga16-CHO EC50
Protocol: CHO-Gα16 cells stably expressing FPRL1 were cultured in (F12, 10% FBS, 1% PSA, 400 μg/ml geneticin and 50 μg/ml hygromycin) and HEK-Gqi5 cells stable expressing FPR1 were cultured in (DMEM high glucose, 10% FBS, 1% PSA, 400 μg/ml geneticin and 50 μg/ml hygromycin). In general, the day before the experiment, 18,000 cells/well were plated in a 384-well clear bottom poly-d-lysine coated plate. The following day the screening compound-induced calcium activity was assayed on the FLIPR^Tetra. The drug plates were prepared in 384-well microplates using the EP3 and the MultiPROBE robotic liquid handling systems. Compounds were tested at concentrations ranging from 0.61 to 10,000 nM. Results are expressed as EC50 (nM) and efficacy values.

| SMILES | FPRL-1 Ga16-CHO (Rel. eff.) | EC50 [nM] |
| --- | --- | --- |
| CCC[C@H](NC(=O)Nc1ccc(Br)cc1F)C(=O)NCC(C)=O [(2S)-2-{[(4-bromo-2-fluorophenyl)carbamoyl]amino}-N-(2-oxopropyl)pentanamide] | (0.92) | 92 |
| CCC[C@H](NC(=O)Nc1ccc(Br)cc1)C(=O)NCC(C)=O [(2S)-2-{[(4-bromophenyl)carbamoyl]amino}-N-(2-oxopropyl)pentanamide] | (1.05) | 35 |
| O=C(O)CNC(=O)[C@H](Cc1ccccc1)NC(=O)Nc1ccc(Br)cc1 [Compound 1, {[(2S)-2-{[(4-bromophenyl)carbamoyl]amino}-3-phenylpropanoyl]amino}acetic acid] | (0.99) | 7.7 |
| O=C(O)CCNC(=O)[C@H](Cc1ccccc1)NC(=O)Nc1ccc(Br)cc1 [Compound 2, 3-{[(2S)-2-{[(4-bromophenyl)carbamoyl]amino}-3-phenylpropanoyl]amino}propanoic acid] | (0.98) | 18 |
| CC[C@H](C)[C@H](NC(=O)Nc1ccc(Br)cc1F)C(=O)NCC(=O)O [Compound 3, {[(2S,3S)-2-{[(4-bromo-2-fluorophenyl)carbamoyl]amino}-3-methylpentanoyl]amino}acetic acid] | (0.95) | 5.5 |
| CC[C@H](C)[C@H](NC(=O)Nc1ccc(Br)cc1)C(=O)NCC(=O)O [Compound 4, {[(2S,3S)-2-{[(4-bromophenyl)carbamoyl]amino}-3-methylpentanoyl]amino}acetic acid] | (1.00) | 2.7 |
| CCC[C@H](NC(=O)Nc1ccc(Br)cc1)C(=O)NCC(=O)O [Compound 5, {[(2S)-2-{[(4-bromophenyl)carbamoyl]amino}pentanoyl]amino}acetic acid] | (0.91) | 3.2 |
| CC(C)(C)OC(=O)CNC(=O)[C@H](Cc1ccccc1)NC(=O)Nc1ccc(Br)cc1 [Compound 7, tert-Butyl {[(2S)-2-{[(4-bromophenyl)carbamoyl]amino}-3-phenylpropanoyl]amino}acetate] | (0.91) | 118 |
| CC(C)(C)OC(=O)CCNC(=O)[C@H](Cc1ccccc1)NC(=O)Nc1ccc(Br)cc1 [Compound 8, tert-butyl 3-{[(2S)-2-{[(4-bromophenyl)carbamoyl]amino}-3-phenylpropanoyl]amino}propanoate] | (1.00) | 255 |
| O=C(Nc1ccc(Br)cc1)N[C@@H](Cc1ccccc1)C(=O)NCCO [Compound 9, (2S)-2-{[(4-bromophenyl)carbamoyl]amino}-N-(2-hydroxyethyl)-3-phenylpropanamide] | (0.92) | 6 |
| CC[C@H](C)[C@H](NC(=O)Nc1ccc(Br)cc1F)C(=O)NCC(=O)OC(C)(C)C [Compound 10, tert-butyl{[(2S,3S)-2-{[(4-bromo-2-fluorophenyl)carbamoyl]amino}-3-methylpentanoyl]amino}acetate] | (0.86) | 757 |
| CC[C@H](C)[C@H](NC(=O)Nc1ccc(Br)cc1)C(=O)NCC(=O)OC(C)(C)C [Compound 11, tert-butyl{[(2S,3S)-2-{[(4-bromophenyl)carbamoyl]amino}-3-methylpentanoyl]amino}acetate] | (0.85) | 280 |
| CC[C@H](C)[C@H](NC(=O)Nc1ccc(Br)cc1)C(=O)NCC(C)=O [Compound 12, (2S,3S)-2-{[(4-bromophenyl)carbamoyl]amino}-3-methyl-N-(2-oxopropyl)pentanamide] | (0.97) | 10 |
| CC[C@H](C)[C@H](NC(=O)Nc1ccc(Br)cc1F)C(=O)NCC(C)=O [Compound 13, (2S,3S)-2-{[(4-bromo-2-fluorophenyl)carbamoyl]amino}-3-methyl-N-(2-oxopropyl)pentanamide] | (1.01) | 36 |
| CC[C@H](C)[C@H](NC(=O)Nc1ccc(Br)cc1)C(=O)NCCO [Compound 14, (2S,3S)-2-{[(4-bromophenyl)carbamoyl]amino}-N-(2-hydroxyethyl)-3-methylpentanamide] | (1.00) | 24 |
| CC[C@H](C)[C@H](NC(=O)Nc1ccc(Br)cc1F)C(=O)NCCO [Compound 15, (2S,3S)-2-{[(4-bromo-2-fluorophenyl)carbamoyl]amino}-N-(2-hydroxyethyl)-3-methylpentanamide] | (1.00) | 62 |
| CC(=O)CNC(=O)[C@H](Cc1ccccc1)NC(=O)Nc1ccc(Br)cc1 [Compound 16, (2S)-2-{[(4-bromophenyl)carbamoyl]aminio}-N-(2-oxopropyl)-3-phenylpropanamide] | (0.96) | 29 |

The next lines start with the values.

| FPRL-1 Ga16-CHO (Rel. eff.) | EC50 [nM] | SMILES |
| --- | --- | --- |
| (1.03) | 305 | CC(C)(C)OC(=O)CNC(=O)[C@H](Cc1c[nH]c2ccccc12)NC(=O)Nc1ccc(Br)cc1 (stereo in doubt) [Compound 90, tert-butyl {[2-{[(4-bromophenyl)carbamoyl]amino}-3-(1H-indol-3-yl)propanoyl]amino}acetate] |
| (0.94) | 12 | CC(=O)CNC(=O)[C@H](Cc1ccccc1)NC(=O)Nc1ccc(Br)cc1F [Compound 17, (2S)-2-{[(4-bromo-2-fluorophenyl)carbamoyl]amino}-N-(2-oxopropyl)-3-phenylpropanamide] |
| (0.95) | 31 | CCC[C@H](NC(=O)Nc1ccc(Br)cc1)C(=O)NCC(=O)OC(C)(C)C [Compound 18, tert-butyl {[(2S)-2-{[(4-bromophenyl)carbamoyl]amino}-pentanoyl]amino}acetate] |
| (0.98) | 16 | O=C(Nc1ccc(Br)cc1F)N[C@@H](Cc1ccccc1)C(=O)NCCO [Compound 19, (2S)-2-{[(4-bromo-2-fluorophenyl)carbamoyl]amino}-N-(2-hydroxyethyl)-3-phenylpropanamide] |
| (0.92) | 38 | CCC[C@H](NC(=O)Nc1ccc(Br)cc1)C(=O)NCCO [Compound 20, (2S)-2-{[(4-bromophenyl)carbamoyl]amino}-N-(2-hydroxyethyl)pentanamid] |
| (0.87) | 105 | CCC[C@H](NC(=O)Nc1ccc(Br)cc1F)C(=O)NCCO [Compound 21, (2S)-2-{[(4-bromo-2-fluorophenyl)carbamoyl]amino}-N-(2-hydroxyethyl) pentanamide] |
| (0.88) | 17 | CCC[C@H](NC(=O)Nc1ccc(Br)cc1)C(=O)NCC(=O)OC [Compound 22, methyl {[(2S)-2-{[(4-bromophenyl)carbamoyl]amino}-pentanoyl]amino}acetate] |
| (1.18) | 57 | CCC[C@H](NC(=O)Nc1ccc(Br)cc1)C(=O)NCC(=O)OCC [Compound 23, ethyl {[(2S)-2-{[(4-bromophenyl)carbamoyl]amino}-pentanoyl]amino}acetate] |
| (1.04) | 14 | CCC[C@H](NC(=O)Nc1ccc(Br)cc1)C(=O)NCC(=O)OC(C)C [Compound 24, isopropyl {[(2S)-2-{[(4-bromophenyl)carbamoyl]amino}-pentanoyl]amino}acetate] |

— patent US10172832B2, “Amide derivatives of N-urea substituted amino acids as formyl peptide receptor like-1 (FPRL-1) receptor modulators” (Allergan, Inc., priority 2011, dated 2019)
